# Measured values: patent publication EP0603240B1, “SAFENING HERBICIDAL PYRAZOLYLSULFONYLUREAS” (priority 1991, dated 1993)
# What was measured:
# Test in all cases: Example 24, Procedure II: Herbicide No. 1 + co-herbicides Nos. 4, 6, 7, 12 with Antidote Nos. 15 and 17-21
# Format in all cases: in vivo
# [1] = test system: Giant foxtail (Setaria fabergi)
# Procedure: (§1) Containers were filled and compacted with a fumigated silt loam top soil to a depth of about 1.3 cm from the top of the container. A first container was designated as an untreated control, a second container was designated as a herbicide control, and a third container was designated as a herbicide + antidote test container. Each of the containers was seeded with a crop species. A measured amount of herbicide dispersed or dissolved in acetone was applied to a measured quantity of soil. To this same quantity of soil treated with herbicide, there was added a measured amount of antidote dispersed or dissolved in acetone. The quantity of soil treated with the herbicide and antidote was thoroughly mixed to incorporate the herbicide and antidote in the soil uniformly. The seed bed in the third container of soil was covered with the soil treated with the herbicide and antidote and the container was leveled. For each test series, the seed beds of the first and second containers were likewise covered by soil layers. the cover layer of the first container was not treated with herbicide or antidote.
# (§2) The containers were then placed on a bench in a greenhouse and sub-irrigated as required for the duration of the test. […] Plant response is measured in terms of percent injury. Antidote efficacy is indicated as the difference in plant injury by the herbicide(s) without the antidote and with the antidote.
# (§3) This procedure is the same as Procedure I, but modified in the manner that after incorporation of the chemicals (herbicide and antidote) the containers with the covered seedbed were treated with an initial overhead irrigation equivalent to 0.6 cm rainfall, then subsequently sub-irrigated as required on greenhouse benches.
# (§4) In other greenhouse tests, using Procedure II described above, the safening efficacy of Antidote Nos. 15 and 17-21 was evaluated against Herbicide No. 1 in corn in the presence of Giant foxtail (Setaria fabergi) and Velvetleaf (Abutilon theophrasti) as representative annual monocotyledonous and dicotyledonous weeds, respectively.
# (§5) Test results are shown in Tables 23A and 23B wherein the indicated plant inhibition represents the average of duplicate replications, with observations being made thirteen (13) days after application of the chemicals. Giant foxtail and Velvetleaf are represented by the symbols "GFT" and "VL", respectively. The data in Table 23A show the test results using the antidotes at 2.24 kg/ha, whereas in Table 23B, the antidotal rate was reduced to 0.56 kg/ha.
# (§6) The tests described in Example 23 were duplicated, but in this example a variety of co-herbicides were included to ascertain the efficacy of the antidotes against combinations of Herbicide No. 1 and Herbicides Nos. 4, 6, 7 and 12 as co-herbicides. Test results are shown in Table 24, wherein the antidote application rate was 2.24 kg/ha.
# [2] = test system: corn
# Procedure: as §1, §2, §3, §4, §5, §6
# [3] = test system: velvetleaf (Abutilon theophrasti)
# Procedure: as §1, §2, §3, §4, §5, §6
# [4] = Herb. No. 1 0.07 Kg/ha + Co-Herb. No. 4 1.12 Kg/ha + antidote 2.24 Kg/ha
# [5] = Herb. No. 1 0.07 Kg/ha + Co-Herb. No. 6 0.14 Kg/ha + antidote 2.24 Kg/ha
# [6] = Herb. No. 1 0.07 Kg/ha + Co-Herb. No. 7 0.28 Kg/ha + antidote 2.24 Kg/ha
# [7] = Herb. No. 1 0.07 Kg/ha + Co-Herb. No. 12 0.28 Kg/ha + antidote 2.24 Kg/ha
# [8] = Herb. No. 1 0.14 Kg/ha + Co-Herb. No. 4 1.12 Kg/ha + antidote 2.24 Kg/ha
# [9] = Herb. No. 1 0.14 Kg/ha + Co-Herb. No. 6 0.14 Kg/ha + antidote 2.24 Kg/ha
# [10] = Herb. No. 1 0.14 Kg/ha + Co-Herb. No. 7 0.28 Kg/ha + antidote 2.24 Kg/ha
# [11] = Herb. No. 1 0.14 Kg/ha + Co-Herb. No. 12 0.28 Kg/ha + antidote 2.24 Kg/ha
# [12] = Herb. No. 1 0.28 Kg/ha + Co-Herb. No. 4 1.12 Kg/ha + antidote 2.24 Kg/ha
# [13] = Herb. No. 1 0.28 Kg/ha + Co-Herb. No. 6 0.14 Kg/ha + antidote 2.24 Kg/ha
# [14] = Herb. No. 1 0.28 Kg/ha + Co-Herb. No. 7 0.28 Kg/ha + antidote 2.24 Kg/ha
# [15] = Herb. No. 1 0.28 Kg/ha + Co-Herb. No. 12 0.28 Kg/ha + antidote 2.24 Kg/ha
# [16] = Herb. No. 1 0.56 Kg/ha + Co-Herb. No. 4 1.12 Kg/ha + antidote 2.24 Kg/ha
# [17] = Herb. No. 1 0.56 Kg/ha + Co-Herb. No. 6 0.14 Kg/ha + antidote 2.24 Kg/ha
# [18] = Herb. No. 1 0.56 Kg/ha + Co-Herb. No. 7 0.28 Kg/ha + antidote 2.24 Kg/ha
# [19] = Herb. No. 1 0.56 Kg/ha + Co-Herb. No. 12 0.28 Kg/ha + antidote 2.24 Kg/ha
smiles,measurement,setting,value
O=C(O)COC(c1ccccc1)c1ccccc1 [compound 19],% Inhibition GFT,[1]; [4],40%
same,% Inhibition GFT,[1]; [5],100%
same,% Inhibition GFT,[1]; [6],99%
same,% Inhibition GFT,[1]; [7],99%
same,% Inhibition GFT,[1]; [8],60%
same,% Inhibition GFT,[1]; [9],100%
same,% Inhibition GFT,[1]; [10],99%
same,% Inhibition GFT,[1]; [11],99%
same,% Inhibition GFT,[1]; [12],45%
same,% Inhibition GFT,[1]; [13],99%
same,% Inhibition GFT,[1]; [14],99%
same,% Inhibition GFT,[1]; [15],100%
same,% Inhibition GFT,[1]; [16],70%
same,% Inhibition GFT,[1]; [17],99%
same,% Inhibition GFT,[1]; [18],99%
same,% Inhibition GFT,[1]; [19],99%
same,% Inhibition Corn,[2]; [4],0%
same,% Inhibition Corn,[2]; [5],0%
same,% Inhibition Corn,[2]; [6],0%
same,% Inhibition Corn,[2]; [7],0%
same,% Inhibition Corn,[2]; [8],0%
same,% Inhibition Corn,[2]; [9],0%
same,% Inhibition Corn,[2]; [10],0%
same,% Inhibition Corn,[2]; [11],0%
same,% Inhibition Corn,[2]; [12],5%
same,% Inhibition Corn,[2]; [13],5%
same,% Inhibition Corn,[2]; [14],5%
same,% Inhibition Corn,[2]; [15],5%
same,% Inhibition Corn,[2]; [16],5%
same,% Inhibition Corn,[2]; [17],10%
same,% Inhibition Corn,[2]; [18],10%
same,% Inhibition Corn,[2]; [19],20%
same,% Inhibition VL,[3]; [4],90%
same,% Inhibition VL,[3]; [5],90%
same,% Inhibition VL,[3]; [6],90%
same,% Inhibition VL,[3]; [7],85%
same,% Inhibition VL,[3]; [8],95%
same,% Inhibition VL,[3]; [9],95%
same,% Inhibition VL,[3]; [10],90%
same,% Inhibition VL,[3]; [11],85%
same,% Inhibition VL,[3]; [12],95%
same,% Inhibition VL,[3]; [13],95%
same,% Inhibition VL,[3]; [14],95%
same,% Inhibition VL,[3]; [15],95%
same,% Inhibition VL,[3]; [16],90%
same,% Inhibition VL,[3]; [17],99%
same,% Inhibition VL,[3]; [18],98%
same,% Inhibition VL,[3]; [19],99%
COC(=O)COC(c1ccccc1)c1ccccc1 [compound 20],% Inhibition GFT,[1]; [4],65%
same,% Inhibition GFT,[1]; [5],100%
same,% Inhibition GFT,[1]; [6],98%
same,% Inhibition GFT,[1]; [7],99%
same,% Inhibition GFT,[1]; [8],40%
same,% Inhibition GFT,[1]; [9],99%
same,% Inhibition GFT,[1]; [10],98%
same,% Inhibition GFT,[1]; [11],100%
same,% Inhibition GFT,[1]; [12],65%
same,% Inhibition GFT,[1]; [13],100%
same,% Inhibition GFT,[1]; [14],100%
same,% Inhibition GFT,[1]; [15],100%
same,% Inhibition GFT,[1]; [16],65%
same,% Inhibition GFT,[1]; [17],100%
same,% Inhibition GFT,[1]; [18],99%
same,% Inhibition GFT,[1]; [19],100%
same,% Inhibition Corn,[2]; [4],0%
same,% Inhibition Corn,[2]; [5],0%
same,% Inhibition Corn,[2]; [6],0%
same,% Inhibition Corn,[2]; [7],0%
same,% Inhibition Corn,[2]; [8],0%
same,% Inhibition Corn,[2]; [9],5%
same,% Inhibition Corn,[2]; [10],0%
same,% Inhibition Corn,[2]; [11],5%
same,% Inhibition Corn,[2]; [12],0%
same,% Inhibition Corn,[2]; [13],5%
same,% Inhibition Corn,[2]; [14],0%
same,% Inhibition Corn,[2]; [15],5%
same,% Inhibition Corn,[2]; [16],10%
same,% Inhibition Corn,[2]; [17],20%
same,% Inhibition Corn,[2]; [18],5%
same,% Inhibition Corn,[2]; [19],10%
same,% Inhibition VL,[3]; [4],90%
same,% Inhibition VL,[3]; [5],95%
same,% Inhibition VL,[3]; [6],95%
same,% Inhibition VL,[3]; [7],90%
same,% Inhibition VL,[3]; [8],90%
same,% Inhibition VL,[3]; [9],90%
same,% Inhibition VL,[3]; [10],90%
same,% Inhibition VL,[3]; [11],95%
same,% Inhibition VL,[3]; [12],90%
same,% Inhibition VL,[3]; [13],98%
same,% Inhibition VL,[3]; [14],95%
same,% Inhibition VL,[3]; [15],98%
same,% Inhibition VL,[3]; [16],95%
same,% Inhibition VL,[3]; [17],95%
same,% Inhibition VL,[3]; [18],95%
same,% Inhibition VL,[3]; [19],98%
